Literature values in US20230149377A1, “PHARMACEUTICAL METHODS” (ELEVAR THERAPEUTICS, INC., priority 2018, published 2023).
Structures can show the parent of a compound that is named as a salt.

What was measured:
[1] = observed safety issues, approved drugs
[2] = single dose
[3] = Phase 1, 46 patients
[4] = biological target: VEGFR-2 (Homo sapiens, UniProt P35968); details: nonclinical
[5] = test system: gastric cancer; details: Phase 3
[6] = 81 mg rivoceranib dose (100 mg mesylate), healthy volunteers
[7] = test system: tumor bearing animal models

Chain of VEGFR-2 (P35968 20-1356, species assumed): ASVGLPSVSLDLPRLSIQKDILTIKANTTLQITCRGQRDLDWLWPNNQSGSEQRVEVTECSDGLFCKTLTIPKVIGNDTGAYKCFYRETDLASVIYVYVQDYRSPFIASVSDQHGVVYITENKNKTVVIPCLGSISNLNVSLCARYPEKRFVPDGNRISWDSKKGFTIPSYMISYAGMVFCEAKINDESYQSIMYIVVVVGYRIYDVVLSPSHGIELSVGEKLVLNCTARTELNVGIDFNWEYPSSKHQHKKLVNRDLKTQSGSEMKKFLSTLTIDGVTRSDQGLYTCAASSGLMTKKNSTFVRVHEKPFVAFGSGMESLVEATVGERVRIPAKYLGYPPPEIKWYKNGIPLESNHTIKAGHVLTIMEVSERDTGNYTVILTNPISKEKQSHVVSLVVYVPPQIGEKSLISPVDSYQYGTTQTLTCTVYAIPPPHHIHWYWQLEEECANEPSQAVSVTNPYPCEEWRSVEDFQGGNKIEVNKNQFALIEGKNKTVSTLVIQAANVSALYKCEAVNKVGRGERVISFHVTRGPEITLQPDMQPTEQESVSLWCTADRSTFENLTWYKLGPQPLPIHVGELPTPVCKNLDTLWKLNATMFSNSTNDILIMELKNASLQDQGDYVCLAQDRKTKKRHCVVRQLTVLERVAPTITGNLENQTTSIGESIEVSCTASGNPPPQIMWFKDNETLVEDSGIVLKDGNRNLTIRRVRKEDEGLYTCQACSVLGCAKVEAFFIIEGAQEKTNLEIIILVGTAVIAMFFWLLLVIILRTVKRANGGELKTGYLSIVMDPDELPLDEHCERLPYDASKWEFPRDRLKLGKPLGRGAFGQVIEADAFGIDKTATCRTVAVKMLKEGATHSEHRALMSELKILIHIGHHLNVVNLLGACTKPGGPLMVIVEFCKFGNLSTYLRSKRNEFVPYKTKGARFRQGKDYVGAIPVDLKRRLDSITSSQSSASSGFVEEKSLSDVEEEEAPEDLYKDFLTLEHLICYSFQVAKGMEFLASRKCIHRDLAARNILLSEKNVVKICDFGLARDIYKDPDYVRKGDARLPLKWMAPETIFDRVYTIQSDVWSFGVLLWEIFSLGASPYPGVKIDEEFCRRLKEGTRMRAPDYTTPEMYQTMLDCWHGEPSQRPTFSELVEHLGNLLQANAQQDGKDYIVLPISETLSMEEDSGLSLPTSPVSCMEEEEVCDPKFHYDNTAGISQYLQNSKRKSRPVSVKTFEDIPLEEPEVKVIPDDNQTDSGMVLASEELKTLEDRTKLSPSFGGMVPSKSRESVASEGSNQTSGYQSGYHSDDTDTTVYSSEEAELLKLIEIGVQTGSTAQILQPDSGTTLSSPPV

For `Cc1nc(Nc2ncc(C(=O)Nc3c(C)cccc3Cl)s2)cc(N2CCN(CCO)CC2)n1` [Dasatinib], the “Safety Profile: Central nervous system” value [1] is given as “R”, the “Safety Profile: Liver/Bile” value [1] is given as “R” and the “Safety Profile: Musculoskeletal/bone” value [1] is given as “R”. For the same compound, the “Safety Profile: Renal” value [1] was “R”.
In the case of `C#Cc1cccc(Nc2ncnc3cc(OCCOC)c(OCCOC)cc23)c1` [Erlotinib], the “Safety Profile: Blood/lymph system” value [1] is listed as “R”, the “Safety Profile: Central nervous system” value [1] is listed as “R” and the “Safety Profile: Liver/Bile” value [1] is listed as “R”.
In the case of `CS(=O)(=O)CCNCc1ccc(-c2ccc3ncnc(Nc4ccc(OCc5cccc(F)c5)c(Cl)c4)c3c2)o1` [Lapatinib], the “Safety Profile: Central nervous system” value [1] is listed as “R” and the “Safety Profile: Heart” value [1] is listed as “R”.
In the case of `Cc1cn(-c2cc(NC(=O)c3ccc(C)c(Nc4nccc(-c5cccnc5)n4)c3)cc(C(F)(F)F)c2)cn1` [Nilotinib], the “Safety Profile: Central nervous system” value [1] is given as “R”, the “Safety Profile: GI” value [1] is given as “R” and the “Safety Profile: Musculoskeletal/bone” value [1] is given as “R”. For the same compound, the “Safety Profile: Renal” value [1] was “R” and the “Safety Profile: Vascular” value [1] was “R”.
In the case of `Cc1ccc(Nc2nccc(N(C)c3ccc4c(C)n(C)nc4c3)n2)cc1S(N)(=O)=O` [Pazopanib], the “Safety Profile: Heart” value [1] is given as “R”.
For `CNC(=O)c1cc(Oc2ccc(NC(=O)Nc3ccc(Cl)c(C(F)(F)F)c3)cc2)ccn1` [Sorafenib], the “Safety Profile: Central nervous system” value [1] is given as “R”, the “Safety Profile: GI” value [1] is given as “R” and the “Safety Profile: Heart” value [1] is given as “R”. The “Safety Profile: Liver/Bile” value [1] was “R”, the “Safety Profile: Lung airways” value [1] was “R” and the “Safety Profile: Musculoskeletal/bone” value [1] was “R”. For the same compound, the “Safety Profile: Renal” value [1] was “R”.
For `CCN(CC)CCNC(=O)c1c(C)[nH]c(/C=C2\C(=O)Nc3ccc(F)cc32)c1C` [Sunitinib], the “Safety Profile: Central nervous system” value [1] is listed as “R”, the “Safety Profile: Heart” value [1] is listed as “R” and the “Safety Profile: Liver/Bile” value [1] is listed as “R”.
In the case of `N#CC1(c2ccc(NC(=O)c3cccnc3NCc3ccncc3)cc2)CCCC1` [rivoceranib mesylate], the “AUC0-∞ in Chinese and Japanese subjects compared to Caucasian subjects” value ([2]; healthy male) is listed as “slightly higher”, the “Cmax in Chinese and Japanese subjects compared to Caucasian subjects” value ([2]; healthy male) is listed as “slightly higher” and the t1/2 ([2]; similar amongst Caucasian, Japanese and Chinese groups) is listed as 7.5 to 8 h. The maximum tolerated dose [3] was 850 mg.
For `N#CC1(c2ccc(NC(=O)c3cccnc3NCc3ccncc3)cc2)CCCC1` [rivoceranib, N-[4-(1-cyanocyclopentyl)phenyl]-2-{[(pyridin-4-yl)methyl]amino} pyridine-3-carboxamide], the “binding to VEGFR-2” value [4] is listed as “selectively binds”, the “Grade 3/4 adverse reactions that occurred in more than 2% of patients” value [5] is listed as “hypertension, HFS, proteinuria, fatigue, anorexia, and elevated aminotransferase” and the “median overall survival (OS) compared to placebo” value [5] is listed as “prolonged”. For the same compound, the “median progression-free survival (PFS) compared to placebo” value [5] was “prolonged”, the “Food effects on the bioavailability” value [6] was “minimal” and the “side effects in animals” value ([7]; at efficacious doses) was “minimal side effects”. The “efficacy in various tumor bearing animal models” value ([7]; nonclinical) was “efficacious”.
